According to patent publication US8710068B2, “Method of treating cancer using a survivin inhibitor” (The Trustees Of The University Of Pennsylvania, priority 2009, dated 2014):

Tests used:
HeLa cells [1] = assay: Cell cycle analysis of DNA content by PI staining and FACS, HeLa; assay type: cell-based, human; conditions: for block of cells in mitosis: FACS analysis and immunofluorescence studies; for accumulation of cells in the G2/M stage: HeLa, 15 hours, FACS DNA content
Experimental: FIG. 7 illustrates the effect of S2 or S12 on cell cycle progression. HeLa cells were treated with S2, S12, S10, S1 (control compound), or DMSO (control), propidium iodide (PI) staining and FACS analysis were performed to quantify the DNA content of cells.
FIG. 9 illustrates the effect of S12 on mitosis. (A) HeLa cells were treated with S12, S2 or DMSO for 15 hours. The cells were then fixed and subjected to immunostaining using antibodies specific for Aurora B (green) and Survivin (red). DNA was stained with DAPI. Chromosome misalignment is indicated with the arrowheads. (B) Percentage of S12-treated cells in mitosis, in metaphase, in anaphase/telophase, or with misaligned chromosomes. (C) Percentage of S2-treated cells in mitosis, in metaphase, in anaphase/telophase, or with misaligned chromosomes. (D) HeLa cells were treated with S12 (10 μg/ml) or DMSO (control) for 15 hours. Cells were examined by PI staining of DNA content by FACS analysis.
FIG. 17 illustrates (A) FACS analysis of DNA content of HeLa cells treated with SBDO3. Note the accumulation of cells at the G2/M stage. Cell death was also observed (sub-G1 population); (B) Immuno-fluorescence microscopy analysis of cell treated with SBDO3. Note that the microtubule bundles of the mitotic spindle are disorganized. The chromosomes are not aligned properly and cells cannot go through metaphase.
The candidate Survivin-targeting molecules identified by the virtual screen were examined for the ability to inhibit cell proliferation and mitosis. HeLa cells were treated with the compounds at various concentrations for 15 hours followed by examination of the DNA content by FACS analysis. […] The effects of S2 inflicted on cell proliferation and viability are consistent with the anticipated outcome caused by the ablation of Survivin functions. We have extended these studies to test a number of molecules that are structurally similar to S2, including S10, S11, S12 and S13. […] S12 affected cell proliferation and viability, consistent with the anticipated outcome caused by ablation of Survivin functions.
We analyzed distribution of cells in the different stages of the cell cycle by FACS. […] In addition, the inhibitory effect of SBDO3 is dose dependent (FIG. 17A).
We also conducted immuno-fluorescence studies on SBDO3 treated HeLa cells.

[2] = tested on: AsPC1 pancreatic cancer cells; assay: MTT tumor cell proliferation assay, AsPC1; assay type: cell-based, human; conditions: AsPC1, 5, 10, 20, or 50 μg/ml for 48 hours
Experimental: (§1) FIG. 3 illustrates the effect of S2 and its analogs on tumor cell proliferation. Cells were treated with DMSO or Survivin targeting molecules at the indicated concentration for 48 hours. The percentage of viable cells was evaluated by MTT assay. (A) AsPC1; (B) HeLa; (C) SKBR3; (D) DAOY.
(§2) FIG. 18 illustrates the effect of SBDO3, SN2, or SDC1 on tumor cell proliferation. (A) AsPC1 cells were treated with DMSO or the Survivin targeting molecules SBDO3 or SN2 at the indicated concentration for 48 hours. (B) SKBR3 cells were treated with DMSO or SDC1 for 48 hours. The percentage of viable cells was evaluated by MTT assay.
(§3) S2 and its analogs (S10, S11, S12, and S13) were tested for the ability to inhibit tumor cell proliferation by MTT assay. The AsPC1 pancreatic cancer cells were treated with DMSO, a control molecule SC2, or the Survivin-targeting compounds at the concentration of 5, 10, 20, or 50 μg/ml for 48 hours. The number of viable cells was evaluated by MTT.
(§4) SBDO3, SN2 and SDC1 were tested for the ability to inhibit tumor cell proliferation by MTT assay. The AsPC1 pancreatic cancer cells were treated with DMSO or the Survivin-targeting compounds at the concentration of 5, 10, 20, or 50 μg/ml for 48 hours. The number of viable cells was evaluated by MTT.

SKBR3 breast cancer cell = assay: MTT tumor cell proliferation assay, SKBR3; assay type: cell-based, human; conditions: SKBR3, 48 hours
Experimental: as §1, §2, §3, §4

Survivin protein = molecular target: T1, Survivin protein (Homo sapiens, UniProt O15392); assay: Isothermal titration calorimetry (ITC) binding to native Survivin; conditions: ITC, in words
T1 construct: made in house; host or cells: bacteria
Experimental: FIG. 5 illustrates an analysis of S12-Survivin binding with isothermal titration calorimetry (ITC). Single-site point mutagenesis was performed to create the Survivin mutants F86A and V89Y. The native and the mutant proteins were produced and purified from bacteria.
FIG. 16 illustrates the isothermal titration calorimetry profile of the binding of SBDO3 to the Survivin homodimer.
In order to examine the specificity of the binding, we generated point mutations on the Survivin protein at the site presumably targeted by S12. The two mutations were substitutions of phenylalanine 86 with alanine (F86A) and valine 89 with tyrosine (V89Y). These two altered sites are also adjacent to the interface involved in dimerization of the Survivin protein. Based on structural analyses, we predict that alterations of either of these two amino acid residues may abolish the binding of S12 without affecting the overall structure of the Survivin protein.
We tested the binding of the Survivin target molecules to Survivin by isothermal titration calorimetry.

HeLa cells [3] = assay: BrdU incorporation DNA synthesis assay (FACS), HeLa; assay type: cell-based, human; conditions: 4 hours treatment then one-hour BrdU
Experimental: BrdU-labeled cells were analyzed by FACS. The percentage of BrdU-positive cells is indicated.
HeLa cells were treated with S12, aphidicolin, or DMSO (control) for 4 hours. BrdU was then added to the medium followed by an additional incubation of 1 hour. The amount of BrdU was examined by staining with anti-BrdU antibody and FACS analysis. The percentage of BrdU-positive cells is shown.
To establish the specificity of the biological activities of the Survivin targeting we examined whether the compounds affect DNA synthesis. HeLa cells were treated with Aphidicolin, S2 or DMSO for 4 hours, followed by one-hour incubation with BrdU. The cells were then collected, fixed and stained with FITC-labeled anti-BrdU antibody.

T1 sequence (O15392 whole entry): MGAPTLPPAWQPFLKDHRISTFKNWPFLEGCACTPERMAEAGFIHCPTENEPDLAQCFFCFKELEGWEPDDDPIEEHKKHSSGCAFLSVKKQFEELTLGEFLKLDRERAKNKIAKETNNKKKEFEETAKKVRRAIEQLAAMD

Row | Compound | block of cells in mitosis (HeLa cells [1]) | inhibition of cell proliferation / cell viability [2] | accumulation of cells in the G2/M stage (HeLa cells [1]) | inhibition of proliferation (SKBR3 breast cancer cell) | binding to the Survivin protein (Survivin protein) | DNA synthesis (BrdU incorporation) (HeLa cells [3])
1 | COc1ccc(C2C(C#N)=C(N)OC3=C2C(=O)CC(C)(C)C3)cc1OCc1ccccc1 (stereo not shown) [SN2] | can also block cells in mitosis | can inhibit cell proliferation and reduce cell viability in a dose-dependent manner |  |  |  | 
2 | O=C(CC1(O)C(=O)Nc2ccc(Br)cc21)c1cccc([N+](=O)[O-])c1 (stereo not shown) [S11] |  | can inhibit cell proliferation and reduce cell viability in a dose-dependent manner | exhibit the ability to arrest the cells at the G2/M stage |  |  | 
3 | O=C(CC1(O)C(=O)Nc2ccccc21)c1ccccc1 (stereo not shown) [S13] |  | can inhibit cell proliferation and reduce cell viability in a dose-dependent manner | exhibit the ability to arrest the cells at the G2/M stage |  |  | 
4 | O=C(O)c1ccccc1C(=O)c1ccc(Sc2ccccc2)c([N+](=O)[O-])c1 [SDC1] | can also block cells in mitosis | can inhibit cell proliferation and reduce cell viability in a dose-dependent manner |  | can inhibit proliferation | can bind to the Survivin protein | 
5 | C[C@@]1(CO)[C@H](O)CC[C@@]2(C)[C@H]1CC[C@H]1C[C@@H]3C[C@@]12CC[C@]3(O)CO [aphidicolin, reference compound] |  |  |  |  |  | inhibits DNA replication
6 | O=C(CC1(O)C(=O)Nc2ccc(Br)cc21)c1ccc(F)cc1 (stereo not shown) [S10] |  | can inhibit cell proliferation and reduce cell viability in a dose-dependent manner | exhibit the ability to arrest the cells at the G2/M stage |  |  | 
